Measured values reported in paper PMC7613639, “Broad-spectrum chemicals block ROS detoxification to prevent plant fungal invasion” (Current biology : CB, 2022).

Molecular target: BcRtt109-GST (Botrytis cinerea, UniProt A0A384J919)
Assay: in vitro acetylation of BcTol1-His6, immunoblot with anti-K122ac
Type: biochemical
Conditions: 0.2 mM acetyl-CoA; acceptor BcTol1-His6; 50 mM Tris-HCl pH 8.0, 37 °C, 1 h

Sequence of BcRtt109-GST (A0A384J919 entry or part of it): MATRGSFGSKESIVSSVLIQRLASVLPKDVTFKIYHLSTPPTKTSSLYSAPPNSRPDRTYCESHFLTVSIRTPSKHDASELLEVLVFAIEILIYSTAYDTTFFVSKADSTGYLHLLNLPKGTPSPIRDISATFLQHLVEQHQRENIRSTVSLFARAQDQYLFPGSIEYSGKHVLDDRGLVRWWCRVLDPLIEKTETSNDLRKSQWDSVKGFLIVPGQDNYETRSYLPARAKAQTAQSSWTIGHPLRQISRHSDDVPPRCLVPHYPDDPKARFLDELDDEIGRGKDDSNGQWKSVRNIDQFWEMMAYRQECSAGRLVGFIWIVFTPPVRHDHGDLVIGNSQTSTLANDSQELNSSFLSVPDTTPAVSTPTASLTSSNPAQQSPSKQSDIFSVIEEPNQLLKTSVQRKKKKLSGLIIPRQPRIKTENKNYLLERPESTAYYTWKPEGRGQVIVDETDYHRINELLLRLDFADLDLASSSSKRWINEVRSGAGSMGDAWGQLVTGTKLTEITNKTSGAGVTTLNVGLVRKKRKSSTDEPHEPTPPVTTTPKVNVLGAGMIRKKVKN

CC(=O)SCCNC(=O)CCNC(=O)[C@H](O)C(C)(C)COP(=O)(O)OP(=O)(O)OC[C@H]1O[C@@H](n2cnc3c(N)ncnc32)[C@H](O)[C@@H]1OP(=O)(O)O [acetyl-CoA]
in vitro acetylation of BcTol1-His6, immunoblot with anti-K122ac: purified BcRtt109-GST, but not GST itself, acetylates WT BcTol1 effectively in vitro
